“And” between values parts separate entries of the source, which are not always exact repeats. Equal values may be shown once. Read-outs that look alike come from different tables or passages of the source.
System: S. aureus strains
Experiment: Minimum Inhibitory Concentration (MIC) assay, Example 1, S. aureus strains
Type: cell-based
Details: Staphylococcus aureus
Method: Strains were conserved in Luria Bertani (LB) Broth (S. aureus) or Brain Heart Infusion (BHI) (S. pyogenes) supplemented with glycerol 15% (v/v) at −80° C., and reactivated by isolation on LB (S. aureus) or BHI (S. pyogenes) agar plates. Strains were cultivated in Mueller Hinton (MH) Broth-cation adjusted (S. aureus) supplemented with lysed horse blood 2.5% (v/v) (S. pyogenes). All strains were cultivated at 37° C., aerobically for S. aureus strains.
Bacterial cultures were stopped in their exponential growth phase and plates were inoculated with the approximate concentration of 10^3 cells per well. Plates were incubated at 37° C. for 18 hours (S. aureus) or 24 hours (S. pyogenes). Optical density at a wavelength of 600 nm was measured at the end of the incubation time. […] Experiments were performed at least as triplicate biological replicates with all strains.

O=C(Nc1ccc([N+](=O)[O-])cc1Cl)c1cc(Cl)ccc1O [Niclosamide, 5-chloro-N-(2-chloro-4-nitrophenyl)-2-hydroxybenz-amide]
MIC (S. aureus strains, read-out: Mic100 S. aureus): ≤ 0.4 µg/mL and ≤ 1.25 µM | MIC (against S. aureus strains, including strains resistant to fusidic acid and to mupirocin (FIG. 1), read-out: MIC): ≤ 0.4 µg/mL
